Data reported in patent US20050187208A1 (priority 2004, published 2005).
Where a name gives a salt, the structure may show the parent alone.

How the values were obtained:
[1] = biological target: T1, transfected human CB1 receptor (Homo sapiens, UniProt P21554); assay: In-vitro determination of affinity to CB1 receptor, radioligand [^3H]-CP55940; type: binding; settings: read-out: CB1 Receptor % Inhibition 10^−6 M
T1 construct: purchased Receptor Biology, Inc
Procedure: I. In-vitro Determination of Affinity to CB1/CB2-Rezeptors
The in-vitro determination of the affinity of the inventive substituted azetidine compounds to CB1/CB2-Receptors is carried out as described in the publication of Ruth A. Ross, Heather C. Brockie et al., “Agonist-inverse agonist characterization at CB1 and CB2 cannabinoid receptors of L-759633, L759656 and AM630”, British Journal of Pharmacology, 126, 665-672, (1999). The respective parts of the descriptions are hereby incorporated by reference and form part of the present disclosure. The transfected human CB1 and CB2 receptor are obtained from Receptor Biology, Inc. The radioligand used for both receptors is [^3H]-CP55940.
The affinity of the inventive substituted azetidine compounds to CB1/CB2 receptors is determined as described above.

cannabinoid receptors [2] = assay: Mouse tetrad model, antagonistic effect against Win 55212-2; type: in vivo; parameters: unit not given here; settings: 5 mg/kg i.v. prior to Win 55212-2 1.25 mg/kg i.v.; male NMRI mice
Source text: (§1) Substances with affinity for cannabinoid receptors are known to produce a wide range of pharmacological effects. It is also known that intravenous administration of a substance with affinity for cannabinoid receptors in mice produces analgesia, hypothermia, sedation and catalepsy. Individually, none of these effects can be considered as proof that a tested substance has affinity for cannabinoid-receptors, since all of these effects are common for various classes of centrally active agents. However, substances, which show all of these effects, i.e. substances that are active in this so-called tetrad model are considered to have affinity for the cannabinoid receptors. It has further been shown that cannabinoid receptor antagonists are higly effective in blocking the effects of a cannabinoid agonist in the mouse tetrad model.
(§2) The tetrad model is described, for example, in the publication of A. C. Howlett et al, International Union of Pharmacology XXVII. Classification of Cannabinoid Receptors, Pharmacol Rev 54, 161-202, 2002 and David R. Compton et al., “In-vivo Characterization of a Specific Cannabinoid Receptor Antagonist (SR141716A): Inhibition of Tetrahydrocannbinol-induced Responses and Apparent Agonist Activity”, J. Pharmacol. Exp. Ther. 277, 2, 586-594, 1996. The corresponding parts of the description are hereby incorporated by reference.
(§3) Male NMRI mice with a weight of 20-30 g (Harlan, Barcelona, Spain) are used in all of the following experiments.
(§4) Before testing in the behavioral procedures given below, mice are acclimatized to the experimental setting. Pre-Treatment control values are determined for analgesia hot plate latency (in seconds), rectal temperature, sedation and catalepsy.
(§5) In order to determine the agonistic activty of the substance to be tested, the mice are injected intravenously with the substance to be tested or the vehicle alone. 15 minutes after injection, latency in hot plate analgesia is measured. Rectal temperature, sedation and catalepsy are measured 20 minutes after injection.
In order to determine the antagonistic activity the identical procedure is used as for the determination of the agonistic effects, but with the difference that the substance to be evaluated for its antagonistic activity is injectected 5 minutes before the intravenous injection of 1.25 mg/kg Win-55,212 a known cannabinoid-receptor agonist.
(§6) The hot plate analgesia is determined according to the method described in Woolfe D. et al. “The evaluation of analgesic action of pethidine hydrochloride (Demerol)”, J. Pharmacol. Exp. Ther. 80, 300-307, 1944. The respective description is hereby incorporated by reference and forms part of the present disclosure.
(§7) The mice are placed on a hot plate (Harvard Analgesimeter) at 55±0.5° C. until they show a painful sensation by licking their paws or jumping and the time for these sensations to occur is recorded. This reading is considered the basal value (B). The maximum time limit the mice are allowed to remain on the hot plate in absence of any painful response is 40 seconds in order to prevent skin damage. This period is called the cut-off time (PC).
(§8) Fifteen minuts after the administration of the substance to be tested, the mice are again placed on the hot plate and the afore described procedure is repeated. This period is called the post-treatment reading (PT).
(§9) The degree of analgesia is calculated from the formula: % MPE of Analgesia=(PT−B)/(PC−B)×100 • MPE Maximum possible effect. Determination of Sedation and Ataxia
(§10) Sedation and ataxia is determined according to the method described in Desmet L. K. C. et al. “Anticonvulsive properties of.Cinarizine and Flunarizine in Rats and Mice”, Arzneim. -Forsch. (Frug Res) 25, 9, 1975. The respective description is hereby incorporated by reference and forms part of the present disclosure.
The chosen scoring system is • 0: no ataxia; • 1: doubful; • 2: obvious calmness and quiet; • 3 pronounced ataxia; prior to as well as after treatment. […]

cannabinoid receptors [3] = assay: Mouse tetrad model, agonistic effect (hot plate, hypothermia, catalepsy, sedation); type: in vivo; parameters: key to Agonistic effect A: Hot-Plate test: % MPE = (PT−B)/(PC−B)×100; key to Agonistic effect D: Sedation: % sedation = mean score (0-3)/3×100; Agonistic effect B: Hypothermia: unit not given here; settings: 5 mg/kg i.v., male NMRI mice; for Agonistic effect A: Hot-Plate test: 15 minutes after injection; for Agonistic effect B: Hypothermia / Agonistic effect C: Catalepsy / Agonistic effect D: Sedation: 20 minutes after injection
Source text: as §1, §2, §3, §4, §5, §6, §7, §8, §9, §10
The chosen scoring system is • 0: no ataxia; • 1: doubful; • 2: obvious calmness and quiet; • 3 pronounced ataxia; prior to as well as after treatment.
The percentage of sedation is determined according to the formula: % of sedation=arithmetic mean/3×100 Hypothermia: […]

T1 sequence (P21554 whole entry): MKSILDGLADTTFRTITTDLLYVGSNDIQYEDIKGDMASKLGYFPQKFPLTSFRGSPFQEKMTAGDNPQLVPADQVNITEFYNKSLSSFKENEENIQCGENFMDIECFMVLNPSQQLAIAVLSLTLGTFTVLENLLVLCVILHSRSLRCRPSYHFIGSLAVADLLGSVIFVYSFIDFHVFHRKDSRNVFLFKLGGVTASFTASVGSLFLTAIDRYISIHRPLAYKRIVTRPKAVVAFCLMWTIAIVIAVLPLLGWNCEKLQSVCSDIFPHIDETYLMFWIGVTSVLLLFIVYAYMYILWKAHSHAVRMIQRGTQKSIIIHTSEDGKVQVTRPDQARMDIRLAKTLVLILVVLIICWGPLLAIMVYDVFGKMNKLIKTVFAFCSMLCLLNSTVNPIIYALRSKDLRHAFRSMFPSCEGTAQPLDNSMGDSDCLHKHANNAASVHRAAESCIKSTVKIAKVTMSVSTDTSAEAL

SMILES | melting point [°C] | other results
Cc1nn(C)c(C)c1S(=O)(=O)N[C@H]1CN(C(c2ccc(Cl)cc2)c2ccc(Cl)cc2)[C@@H]1C | 173 to 175 | –
C[C@@H]1[C@@H](N(S(=O)(=O)c2ccc(F)cc2)S(=O)(=O)c2ccc(F)cc2)CN1C(c1ccc(Cl)cc1)c1ccc(Cl)cc1 | 60 to 64 | –
C[C@H]1[C@H](NC(=O)C2CCCCC2)CN1C(c1ccc(Cl)cc1)c1ccc(Cl)cc1 | 65 to 68 | –
C[C@H]1[C@H](NC(=O)c2cc(F)cc(F)c2)CN1C(c1ccc(Cl)cc1)c1ccc(Cl)cc1 | 57 to 60 | –
C[C@H]1C(NS(=O)(=O)c2ccc(F)cc2)CN1C(c1ccc(Cl)cc1)c1ccc(Cl)cc1 (mixture of isomers) | 154 to 157 | –
C[C@@H]1[C@@H](NS(=O)(=O)c2ccc(-c3ccccc3)cc2)CN1C(c1ccc(Cl)cc1)c1ccc(Cl)cc1 (relative stereo) | 145 to 148 | –
C[C@@H]1[C@@H](NS(=O)(=O)c2c(Cl)nc3sccn23)CN1C(c1ccc(Cl)cc1)c1ccc(Cl)cc1 (relative stereo) | 164 to 169 | –
C[C@@H]1[C@@H](OS(=O)(=O)c2ccc(F)cc2)CN1C(c1ccc(Cl)cc1)c1ccc(Cl)cc1 (relative stereo) [Example 1, 4-Fluoro-benzenesulfonic acid-trans-1-[bis-(4-chloro-phenyl)-methyl]-2-methyl-azetidin-3-yl ester] | 105 to 107 | inhibition at 1 µM [1]: 60%; Antagonistic Effect A: Hot-Plate test (cannabinoid receptors [2]): 46; Antagonistic Effect C: Catalepsy (cannabinoid receptors [2]): 47
C[C@@H]1[C@@H](NS(=O)(=O)c2ccc(S(C)(=O)=O)cc2)CN1C(c1ccc(Cl)cc1)c1ccc(Cl)cc1 (relative stereo) [Example 14, N-{trans-1-[Bis-(4chloro-phenyl)methyl]-2-methyl-azetidin-3-yl}-4-methylsulfonyl-benzenesulfonamide] | 202 to 204 | Agonistic effect A: Hot-Plate test (cannabinoid receptors [3]): 16; Agonistic effect B: Hypothermia (cannabinoid receptors [3]): 0; Agonistic effect C: Catalepsy (cannabinoid receptors [3]): 0; Agonistic effect D: Sedation (cannabinoid receptors [3]): 0; inhibition at 1 µM [1]: 82%; Antagonistic Effect A: Hot-Plate test (cannabinoid receptors [2]): 12; Antagonistic Effect B: Hypothermia (cannabinoid receptors [2]): 71; Antagonistic Effect C: Catalepsy (cannabinoid receptors [2]): 14; Antagonistic Effect D: Sedation (cannabinoid receptors [2]): 9
C[C@@H]1[C@@H](NS(=O)(=O)c2cccc3nsnc23)CN1C(c1ccc(Cl)cc1)c1ccc(Cl)cc1 (relative stereo) [Example 15, 2,1,3-Benzothiadiazole-4-sulfonic acid {trans-1-[bis-(4-chloro-phenyl)-methyl]-2-methyl-azetidin-3-yl}-amide] | – | Agonistic effect A: Hot-Plate test (cannabinoid receptors [3]): 14; Agonistic effect B: Hypothermia (cannabinoid receptors [3]): 0; Agonistic effect C: Catalepsy (cannabinoid receptors [3]): 0; Agonistic effect D: Sedation (cannabinoid receptors [3]): 0; inhibition at 1 µM [1]: 66%; Antagonistic Effect A: Hot-Plate test (cannabinoid receptors [2]): 72; Antagonistic Effect B: Hypothermia (cannabinoid receptors [2]): 100; Antagonistic Effect C: Catalepsy (cannabinoid receptors [2]): 57; Antagonistic Effect D: Sedation (cannabinoid receptors [2]): 71
C[C@@H]1[C@@H](NS(=O)(=O)c2cc(Cl)cc(Cl)c2)CN1C(c1ccc(Cl)cc1)c1ccc(Cl)cc1 (relative stereo) [Example 18, N-{trans-1-[Bis-(4-chloro-phenyl)-methyl]-2-methyl-azetidin-3-yl}-3,5-dichloro-benzenesulfonamide] | 144 to 146 | inhibition at 1 µM [1]: 95%
C[C@@H]1[C@@H](NS(=O)(=O)c2csc3ccccc23)CN1C(c1ccc(Cl)cc1)c1ccc(Cl)cc1 (relative stereo) [Example 25, Benzo[b]thiophene-3-sulfonic acid {trans-1-[bis-(4-chloro-phenyl)-methyl]-2-methyl-azetidin-3-yl}amide] | 192 to 197 | inhibition at 1 µM [1]: 87%
C[C@@H]1[C@@H](NS(=O)(=O)c2ccc3ccccc3c2)CN1C(c1ccc(Cl)cc1)c1ccc(Cl)cc1 (stereo in doubt) | 156 to 160 | –
CC(=O)c1ccc(S(=O)(=O)N[C@H]2CN(C(c3ccc(Cl)cc3)c3ccc(Cl)cc3)[C@@H]2C)cc1 (stereo in doubt) | 177 to 180 | –
C[C@@H]1[C@@H](NS(=O)(=O)c2ccc(Oc3ccc(Br)cc3)cc2)CN1C(c1ccc(Cl)cc1)c1ccc(Cl)cc1 (stereo in doubt) | 115 to 119 | –
Cc1c(S(=O)(=O)N[C@H]2CN(C(c3ccc(Cl)cc3)c3ccc(Cl)cc3)[C@@H]2C)sc2ccc(Cl)cc12 (stereo in doubt) | 105 to 108 | –
C[C@@H]1[C@@H](NS(=O)(=O)CCc2cccc3ccccc23)CN1C(c1ccc(Cl)cc1)c1ccc(Cl)cc1 (stereo in doubt) | 123 to 128 | –
C[C@@H]1[C@@H](NS(=O)(=O)c2cccc3ccccc23)CN1C(c1ccc(Cl)cc1)c1ccc(Cl)cc1 (stereo in doubt) | 171 to 174 | –
C[C@@H]1[C@@H](NS(=O)(=O)c2ccc(Oc3ccccc3)cc2)CN1C(c1ccc(Cl)cc1)c1ccc(Cl)cc1 (stereo in doubt) | 160 to 162 | –
Cc1c(S(=O)(=O)N[C@H]2CN(C(c3ccc(Cl)cc3)c3ccc(Cl)cc3)[C@@H]2C)cnn1-c1ccccc1 (stereo in doubt) | 173 to 176 | –
C[C@@H]1C(N(C)S(=O)(=O)c2ccc(F)cc2)CN1C(c1ccc(Cl)cc1)c1ccc(Cl)cc1 (stereo in doubt) | 182 to 186 | –
C[C@@H]1[C@@H](N(Cc2ccc(F)cc2)S(=O)(=O)c2ccc(F)cc2)CN1C(c1ccc(Cl)cc1)c1ccc(Cl)cc1 (stereo in doubt) | 75 to 78 | –
CCCN([C@H]1CN(C(c2ccc(Cl)cc2)c2ccc(Cl)cc2)[C@@H]1C)S(=O)(=O)c1ccc(F)cc1 (stereo in doubt) | 91 to 97 | –
C[C@H]1[C@H](N)CN1C(c1ccc(Cl)cc1)c1ccc(Cl)cc1 (stereo in doubt) | 134 to 136 | –
C[C@H]1[C@H](NC(=O)C(F)(F)F)CN1C(c1ccc(Cl)cc1)c1ccc(Cl)cc1 (stereo in doubt) (as salt: TFA) | 122 to 127 | –
C[C@@H]1[C@@H](NS(=O)(=O)c2ccc(F)cc2)CN1C(c1ccc(Cl)cc1)c1ccc(Cl)cc1 [Example 33, N-{(2R,3S)-1-[Bis-(4-chloro-phenyl)-methyl]-2-methyl-azetidin-3-yl}-4-fluoro-benzenesulfonamide] | 154 to 158 | inhibition at 1 µM [1]: 71%
